In article PMC4627794, “Non-Selective Cannabinoid Receptor Antagonists, Hinokiresinols Reduce Infiltration of Microglia/Macrophages into Ischemic Brain Lesions in Rat via Modulating 2-Arachidonolyglycerol-Induced Migration and Mitochondrial Activity” (PLoS ONE, 2015):

Experiments:
[1] = biological target: T1, CB1R (U2 OS cells, reporter gene assay) (Homo sapiens, UniProt P21554); assay: SRE-luciferase reporter gene assay, agonism; format: cell-based; conditions: agonist mode
T1 construct: gene CNR1; receptor stably expressed in U2 OS cells

[2] = biological target: T2, hCB2R (human CB2R) (Homo sapiens, UniProt P34972); assay: competition radioligand binding, [3H]CP-55, […]
T2 construct: gene CNR2; full-length receptor stably expressed in CHO cells

[3] = biological target: T2, hCB2R (human CB2R); assay: forskolin-stimulated cAMP accumulation, antagonism; format: cell-based
From the text: forskolin-stimulated cAMP accumulation, antagonism on hCB2R (human CB2R) | antagonism for CB1R and CB2R with IC50 values in micromolar ranges

[4] = biological target: T1, CB1R (U2 OS cells, reporter gene assay); assay: SRE-luciferase reporter gene assay, antagonism; format: cell-based
From the text: SRE-luciferase reporter gene assay, antagonism on CB1R (U2 OS cells, reporter gene assay) | antagonism for CB1R and CB2R with IC50 values in micromolar ranges

T2 sequence (P34972 whole entry): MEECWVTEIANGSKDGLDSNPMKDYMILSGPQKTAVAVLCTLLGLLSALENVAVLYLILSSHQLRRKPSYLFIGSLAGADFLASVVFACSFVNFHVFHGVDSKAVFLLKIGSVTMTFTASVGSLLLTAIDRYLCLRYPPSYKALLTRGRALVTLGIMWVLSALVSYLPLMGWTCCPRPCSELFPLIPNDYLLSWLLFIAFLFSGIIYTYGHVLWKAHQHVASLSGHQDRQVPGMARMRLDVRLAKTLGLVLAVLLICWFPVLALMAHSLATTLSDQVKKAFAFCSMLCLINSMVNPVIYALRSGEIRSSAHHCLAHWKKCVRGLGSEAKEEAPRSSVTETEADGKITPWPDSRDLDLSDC
T1 sequence (P21554 whole entry): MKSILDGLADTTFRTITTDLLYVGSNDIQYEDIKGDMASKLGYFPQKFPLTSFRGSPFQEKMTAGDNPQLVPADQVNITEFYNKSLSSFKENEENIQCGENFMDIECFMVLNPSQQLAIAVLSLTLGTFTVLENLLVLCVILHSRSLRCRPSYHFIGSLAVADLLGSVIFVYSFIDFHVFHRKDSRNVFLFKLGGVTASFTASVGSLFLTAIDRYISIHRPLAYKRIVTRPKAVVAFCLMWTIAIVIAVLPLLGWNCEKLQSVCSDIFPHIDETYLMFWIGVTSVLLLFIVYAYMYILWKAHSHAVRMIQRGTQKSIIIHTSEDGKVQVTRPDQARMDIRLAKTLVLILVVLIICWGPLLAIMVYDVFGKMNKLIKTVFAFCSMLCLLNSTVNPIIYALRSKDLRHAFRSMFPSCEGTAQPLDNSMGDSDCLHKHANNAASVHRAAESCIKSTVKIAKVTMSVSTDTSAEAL

SMILES | EC50 [1] | Ki [2] | IC50 [3] | IC50 [4]
CCCCCCC(C)(C)c1cc(O)c2c(c1)OC(C)(C)[C@@H]1CC=C(CO)C[C@@H]21 [Hu-210] | 0.000199 µM | – | – | –
CN1CCCCC1Cn1cc(C(=O)c2cc([N+](=O)[O-])ccc2I)c2ccccc21 (centres unmarked) [AM-1241, reference compound] | – | 0.0066 µM | – | –
C=C[C@@H](/C=C/c1ccc(O)cc1)c1ccc(O)cc1 [trans-hinokiresinol] | – | 9.5 µM | 20.5 µM | 10.2 µM
C=C[C@@H](/C=C\c1ccc(O)cc1)c1ccc(O)cc1 [cis-hinokiresinol] | – | 12.2 µM | 72.5 µM | 11.2 µM
